Key:
IDH2 R140Q = biological target: T1, IDH2 R140Q (Homo sapiens, UniProt P48735, R140Q); assay: IDH2 R140Q enzymatic assay (cofactor depletion, diaphorase/resazurin); type: biochemical; details: 16 hours preincubation time
T1 sequence (P48735 40-452 R140Q): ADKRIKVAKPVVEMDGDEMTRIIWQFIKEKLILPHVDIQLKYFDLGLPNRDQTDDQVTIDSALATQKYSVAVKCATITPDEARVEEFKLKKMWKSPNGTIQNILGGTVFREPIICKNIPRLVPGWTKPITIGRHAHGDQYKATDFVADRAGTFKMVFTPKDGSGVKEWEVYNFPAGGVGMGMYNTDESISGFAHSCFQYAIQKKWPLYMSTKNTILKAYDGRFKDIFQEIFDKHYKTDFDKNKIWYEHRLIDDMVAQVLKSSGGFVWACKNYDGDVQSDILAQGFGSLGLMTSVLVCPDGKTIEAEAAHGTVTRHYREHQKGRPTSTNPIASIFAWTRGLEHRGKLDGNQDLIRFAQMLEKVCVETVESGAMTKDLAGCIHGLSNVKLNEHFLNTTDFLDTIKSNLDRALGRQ

[1] = test system: U87MG pLVX-IDH2 R140Q-neo cells; assay: U87MG pLVX-IDH2 R140Q-neo cell based assay (2-HG by LC-MS); details: Homo sapiens, U-87 MG
Procedure: U87MG pLVX-IDH2 R140Q-neo cells are grown in T125 flasks in DMEM containing 10% FBS, 1× penicillin/streptomycin and 500 μg/mL G418. They are harvested by trypsin and seeded into 96 well white bottom plates at a density of 5000 cell/well in 100 μl/well in DMEM with 10% FBS. No cells are plated in columns 1 and 12. Cells are incubated overnight at 37° C. in 5% CO2. The next day compounds are made up at 2× concentration and 100 ul are added to each cell well. The final concentration of DMSO is 0.2% and the DMSO control wells are plated in row G. The plates are then placed in the incubator for 48 hours. At 48 hours, 100 ul of media is removed from each well and analyzed by LC-MS for 2-HG concentrations. The cell plate is placed back in the incubator for another 24 hours. At 72 hours post compound addition, 10 mL/plate of Promega Cell Titer Glo reagent is thawed and mixed. The cell plate is removed from the incubator and allowed to equilibrate to room temperature. Then 100 ul of reagent is added to each well of media. The cell plate is then placed on an orbital shaker for 10 minutes and then allowed to sit at room temperature for 20 minutes. The plate is then read for luminescence with an integration time of 500 ms to determine compound effects on growth inhibition.

Nc1nc(Nc2ccnc(C(F)(F)F)c2)nc(-c2cccc(C(F)(F)F)n2)n1 [Compound 378, 6-(6-(trifluoromethyl)pyridin-2-yl)-N2-(2-(trifluoromethyl)pyridin-4-yl)-1,3,5-triazine-2,4-diamine]
IC50 (IDH2 R140Q): < 50 nM | IC50 [1]: < 50 nM

— US9724350B2, “N,6-bis(aryl or heteroaryl)-1,3,5-triazine-2,4-diamine compounds as IDH2 mutants inhibitors for the treatment of cancer” (Agios Pharmaceuticals, Inc., priority 2013, dated 2017)
